Structures can show the parent of a compound that is named as a salt.
Tested on: HeLa cells
Assay: MTT cytotoxicity test
Settings: results not shown
Experimental: In the test, the ability of live cells to reduce the soluble yellow tetrazolium salt (MTT) to blue formazan crystals is used. […] After 3 hours, foetal bovine serum was added to a final concentration of 10%. After various incubation times at 37° C., the incubation medium was removed and 100 μL EMEM containing 0.5 mg/mL MTT (Sigma) was added. The plates were incubated according to the manufacturer's instructions; optical density measurements were carried out using an HTi reader (Biotek, VT Winooski, USA). The number of live cells was calculated according to the protocol (Mosmann, 1983).

## Cc1c(N)nc(C(CC(N)=O)NCC(N)C(N)=O)nc1C(=O)NC(C(=O)NC(C)C(O)C(C)C(=O)NC(C(=O)NCCc1nc(-c2nc(C(=O)NCCCNCCCCN)cs2)cs1)C(C)O)C(OC1OC(CO)C(O)C(O)C1OC1OC(CO)C(O)C(OC(N)=O)C1O)c1c[nH]cn1 (stereo not shown) [BLM, Bleomycin A5 hydrochloride]
  free BLM concentration giving cell mortality similar to Dd-BLM: 8 µM
